Reference: ChEMBL document CHEMBL1201862, “PubChem BioAssay data set” (2004)
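All cell lines were grown in 96-well plates and treated with compound for 48 hours. GI50 = concentration required for 50% inhibition of growth.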 The source made the active and inactive calls. Cut-off read from the data, not from the text of the source: active = GI50 up to about 1.1 µM and inactive = higher.

Key:
Experiment in all cases: DTP human tumour cell line panel, 48 h
CCRF-CEM = system: CCRF-CEM
DU-145 = system: DU-145
HCC 2998 = system: HCC 2998
HCT-15 = system: HCT-15
HOP-92 = system: HOP-92
K562 = system: K562
KM12 = system: KM12
LOX IMVI = system: LOX IMVI
M14 = system: M14
MDA-N = system: MDA-N
NCI-H226 = system: NCI-H226
NCI-H23 = system: NCI-H23
OVCAR-3 = system: OVCAR-3
OVCAR-8 = system: OVCAR-8
SF-268 = system: SF-268
SF-295 = system: SF-295
SK-OV-3 = system: SK-OV-3
SN12C = system: SN12C
U-251 = system: U-251
UACC-257 = system: UACC-257

Structure (SMILES) | GI50 (CCRF-CEM) | GI50 (DU-145) | GI50 (HCC 2998) | GI50 (HCT-15) [µM] | GI50 (HOP-92) | GI50 (K562) | GI50 (KM12) | GI50 (LOX IMVI) | GI50 (M14) | GI50 (MDA-N) | GI50 (NCI-H226) | GI50 (NCI-H23) | GI50 (OVCAR-3) | GI50 (OVCAR-8) | GI50 (SF-268) | GI50 (SF-295) | GI50 (SK-OV-3) | GI50 (SN12C) | GI50 (U-251) | GI50 (UACC-257)
CC(=O)C(=[N+]=[N-])C(=O)OC(C)(C)C#N | > 10 µM (inactive) | > 10 µM (inactive) | > 10 µM (inactive) | > 10 | > 10 µM (inactive) | > 10 µM (inactive) | > 10 µM (inactive) | > 10 µM (inactive) | > 10 µM (inactive) | > 10 µM (inactive) | > 10 µM (inactive) | > 10 µM (inactive) | > 10 µM (inactive) | > 10 µM (inactive) | > 10 µM (inactive) | > 10 µM (inactive) | > 10 µM (inactive) | > 10 µM (inactive) | > 10 µM (inactive) | > 10 µM (inactive)
CCCCCc1c(Cl)nc(Cl)nc1Cl | 0.195 µM (active) | 21.7 µM (inactive) | 11.1 µM (inactive) | 6.17 | 5.46 µM (inactive) | 2.18 µM (inactive) | 13.9 µM (inactive) | 0.471 µM (active) | 1.56 µM (inactive) | 4.95 µM (inactive) | 2 µM (inactive) | 3.18 µM (inactive) | 14.4 µM (inactive) | 10.4 µM (inactive) | 11.1 µM (inactive) | 25.1 µM (inactive) | 10.5 µM (inactive) | 3.1 µM (inactive) | 9.27 µM (inactive) | 13.9 µM (inactive)
O=S1(=O)c2cnccc2N=C(NCc2cccc3ccccc23)N1c1ccccc1 | 2.51 µM (inactive) | > 100 µM (inactive) | 38.4 µM (inactive) | 50.1 | > 41.2 µM (inactive) | 29.4 µM (inactive) | > 100 µM (inactive) | > 96.8 µM (inactive) | > 83.9 µM (inactive) | 13.2 µM (inactive) | > 100 µM (inactive) | 36.2 µM (inactive) | > 100 µM (inactive) | > 93.1 µM (inactive) | > 100 µM (inactive) | 62.8 µM (inactive) | > 100 µM (inactive) | 27 µM (inactive) | 43.8 µM (inactive) | > 100 µM (inactive)
N#CC(C#N)[C@@H]1CCC=C(Sc2ccccc2)[C@H]1Sc1ccccc1 | 1.57 µM (inactive) | 2.72 µM (inactive) | 2.86 µM (inactive) | 2.4 | 3.39 µM (inactive) | 2.36 µM (inactive) | 3 µM (inactive) | 2.46 µM (inactive) | 1.96 µM (inactive) | 1.32 µM (inactive) | 1.72 µM (inactive) | 3.96 µM (inactive) | 3.44 µM (inactive) | 2.7 µM (inactive) | 5.62 µM (inactive) | 6.44 µM (inactive) | 4.54 µM (inactive) | 2.8 µM (inactive) | 5.81 µM (inactive) | 2.26 µM (inactive)
Cc1cc(NC(=O)NC(=O)c2ccccc2N)ccc1Oc1ncc(Br)cn1 | 0.0111 µM (active) | 0.0125 µM (active) | 0.0154 µM (active) | < 0.0107 | 0.0159 µM (active) | < 0.01 µM (active) | < 0.0105 µM (active) | 0.0139 µM (active) | 0.0117 µM (active) | < 0.01 µM (active) | 0.0702 µM (active) | 0.0125 µM (active) | < 0.01 µM (active) | 0.0217 µM (active) | 0.0163 µM (active) | < 0.01 µM (active) | 0.0103 µM (active) | 0.0583 µM (active) | 0.0141 µM (active) | 0.0655 µM (active)
CC(C)(C)OC(=O)N(O)CCCn1cnc2c(NC3CC3)ncnc21 | > 100 µM (inactive) | > 100 µM (inactive) | > 100 µM (inactive) | > 100 | > 100 µM (inactive) | > 100 µM (inactive) | > 100 µM (inactive) | > 100 µM (inactive) | > 100 µM (inactive) | > 100 µM (inactive) | > 100 µM (inactive) | > 100 µM (inactive) | > 100 µM (inactive) | > 100 µM (inactive) | > 100 µM (inactive) | > 100 µM (inactive) | > 100 µM (inactive) | > 100 µM (inactive) | > 100 µM (inactive) | > 100 µM (inactive)
C=CCC(SC)C1=C(C)C(=O)c2ccccc21 (stereo not given) | 6.55 µM (inactive) | > 10 µM (inactive) | > 10 µM (inactive) | > 10 | > 10 µM (inactive) | > 10 µM (inactive) | > 10 µM (inactive) | > 10 µM (inactive) | > 10 µM (inactive) | > 10 µM (inactive) | > 10 µM (inactive) | > 10 µM (inactive) | > 10 µM (inactive) | > 10 µM (inactive) | > 10 µM (inactive) | > 10 µM (inactive) | > 10 µM (inactive) | > 10 µM (inactive) | > 10 µM (inactive) | > 10 µM (inactive)
COC(=O)C#Cc1ccc([N+](=O)[O-])cc1 | 0.532 µM (active) | 1.76 µM (inactive) | 1.76 µM (inactive) | 0.502 | 2.05 µM (inactive) | 2.47 µM (inactive) | 1.8 µM (inactive) | 0.995 µM (active) | 2.05 µM (inactive) | 2.54 µM (inactive) | 2.47 µM (inactive) | 1.62 µM (inactive) | 1.59 µM (inactive) | 2.55 µM (inactive) | 4.16 µM (inactive) | 4.24 µM (inactive) | 8.32 µM (inactive) | 1.67 µM (inactive) | 1.88 µM (inactive) | 2.37 µM (inactive)
C(=N\c1ccc(-c2nc3ccccc3s2)cc1)/c1ccc[nH]1 | 21.7 µM (inactive) | 17.3 µM (inactive) | 16.5 µM (inactive) | 13.6 | 17.4 µM (inactive) | 20.4 µM (inactive) | 20.2 µM (inactive) | 17.3 µM (inactive) | 17.9 µM (inactive) | 18 µM (inactive) | 14.8 µM (inactive) | 16.8 µM (inactive) | 14.7 µM (inactive) | 27.6 µM (inactive) | 15.5 µM (inactive) | 13.3 µM (inactive) | 17.7 µM (inactive) | 19.5 µM (inactive) | 14.4 µM (inactive) | 17.1 µM (inactive)
C=C1C(=O)OC2CC3(C)OC3CC/C(C)=C/C(OC(C)=O)C12 (stereo not given) | 2.12 µM (inactive) | 15.1 µM (inactive) | 16.9 µM (inactive) | 5.57 | 1.82 µM (inactive) | 2.47 µM (inactive) | 15.1 µM (inactive) | 5.22 µM (inactive) | 3.32 µM (inactive) | 6.12 µM (inactive) | 7.45 µM (inactive) | 13.3 µM (inactive) | 10.5 µM (inactive) | 4.71 µM (inactive) | 17 µM (inactive) | 14 µM (inactive) | 20 µM (inactive) | 11.5 µM (inactive) | 18.6 µM (inactive) | 9.64 µM (inactive)
CCOC(=O)C(NC(=O)CC)(Nc1ccc(S(=O)(=O)Nc2ncccn2)cc1)C(F)(F)F (stereo not given) | > 100 µM (inactive) | > 100 µM (inactive) | > 100 µM (inactive) | > 100 | > 100 µM (inactive) | > 100 µM (inactive) | > 100 µM (inactive) | > 100 µM (inactive) | > 100 µM (inactive) | > 100 µM (inactive) | > 100 µM (inactive) | > 100 µM (inactive) | > 100 µM (inactive) | > 100 µM (inactive) | > 100 µM (inactive) | > 100 µM (inactive) | > 100 µM (inactive) | > 100 µM (inactive) | > 100 µM (inactive) | > 100 µM (inactive)
COc1nc(N)c(NC2OC(CO)C(O)C2O)c(=O)[nH]1 (stereo not given) | > 100 µM (inactive) | > 100 µM (inactive) | > 100 µM (inactive) | > 100 | > 100 µM (inactive) | > 100 µM (inactive) | > 100 µM (inactive) | > 100 µM (inactive) | > 100 µM (inactive) | > 100 µM (inactive) | > 100 µM (inactive) | > 100 µM (inactive) | > 100 µM (inactive) | > 100 µM (inactive) | > 100 µM (inactive) | > 100 µM (inactive) | > 100 µM (inactive) | > 100 µM (inactive) | > 100 µM (inactive) | > 100 µM (inactive)
COc1ccc(CCNC(=O)Cc2ccccc2CO)cc1OC | > 100 µM (inactive) | > 100 µM (inactive) | > 100 µM (inactive) | > 100 | > 100 µM (inactive) | > 100 µM (inactive) | > 100 µM (inactive) | > 100 µM (inactive) | > 100 µM (inactive) | > 100 µM (inactive) | > 100 µM (inactive) | > 100 µM (inactive) | > 100 µM (inactive) | > 100 µM (inactive) | > 100 µM (inactive) | > 100 µM (inactive) | > 100 µM (inactive) | > 100 µM (inactive) | > 100 µM (inactive) | > 100 µM (inactive)
O=C1Oc2ccccc2C(=O)/C1=C/N1C(=O)N/C(=C\c2ccccc2O)C1=O | > 100 µM (inactive) | 46.3 µM (inactive) | > 57.4 µM (inactive) | 39.8 | 11 µM (inactive) | 54.7 µM (inactive) | 56.8 µM (inactive) | 34.1 µM (inactive) | 66.4 µM (inactive) | 60.7 µM (inactive) | 81.1 µM (inactive) | 59.8 µM (inactive) | 32.7 µM (inactive) | 58.1 µM (inactive) | > 81.1 µM (inactive) | > 71 µM (inactive) | > 62.7 µM (inactive) | 53.6 µM (inactive) | 57.7 µM (inactive) | 67.5 µM (inactive)
